Assay results reported in patent publication US5961483A, “Iontophoretic delivery of cell adhesion inhibitors” (priority 1997, dated 1999).
Converted amounts (≈) assume the structure as drawn. “And” between values parts separate entries of the source, which are not always exact repeats. Equal entries are not always repeated. Structures can show the parent of a compound that is named as a salt.

Columns and labels:
[1] = Assay of extracts of the patch following completion of iontophoresis; type: in vitro ADME
[2] = Physicochemical properties; details: pH 4
[3] = In vivo swine experiments (iontophoretic delivery, plasma levels; comparison with constant IV infusion); set-up: species or system Yorkshire swine
Method: Patch Design: Same as in Example 1.
Experimental Protocol: In each experiment, the patches were loaded with a 20 mg/mL solution of the same IIb/IIIa antagonist used in Example 1 in 154 mM saline, immediately before application to the skin of the animals. Unanesthetized Yorkshire swine with weights of about 20 to 35 kg were used. The skin sites receiving the patches were wiped clean with moist gauze pads. Patches were overwrapped with an adhesive, elastic wrap to hold the patches in place. Separate constant current (100 μA) power supplies were provided for each iontophoresis patch system. Current and voltage readings were made and recorded by on-board dataloggers (Fluke databuckets).
Blood samples were withdrawn from the vena cava through an IV catheter into VACUTAINER™ blood collection tubes containing EDTA. After gentle mixing, the tubes were centrifuged to separate the plasma, which was transferred to clean polypropylene tubes and frozen on dry ice. Frozen samples were stored at -80° C. until assayed.
Results: FIGS. 4 and 5 provide a comparative illustration of the in vivo delivery of the GPIIb/IIIa antagonist (mentioned in Example 1) to pigs using constant IV infusion (FIG. 4) and constant iontophoresis (FIG. 5). IV infusion employed the acid form of the drug at an infusion rate of 10 μg/h.

[4] = In vitro excised skin iontophoretic delivery (flow-through cells); type: in vitro ADME, porcine; details: for delivery rate (FIG. 7): 50 mg/mL chloride salt
Method: Patch Designs: The 2 compartment patch design includes an absorbent drug reservoir with 2 cm^2 skin-contacting area and volume of 0.30 mL. The drug reservoir is separated from the electrode compartment with a 100 MWCO ultrafiltration membrane. The electrode compartment included a silver anode and cation exchange media in a hydrogel. A monolithic patch design was also used, consisting of a sandwich composed of a silver anode in the middle of 2 layers of absorbent material. The patches are assembled and loaded with the dosing solution just before applying to the skin.
Experimental Protocol: The iontophoretic delivery of a GPIIb/IIIa antagonist was carried out in a flow-through in vitro system. […] The patch was loaded a 10 mg/mL solution of the IIb/IIIa antagonist in 154 mM saline.
A silver chloride mesh return cathode was located upstream of the polycarbonate flow-through cells. Freshly dermatomed (1 mm) porcine skin was mounted in the cells on a porous support. The patches were dosed with aqueous solutions of the drug and then placed on top of the excised skin. The patches were secured by a spring-loaded mechanism that maintained even pressure over the patch. The cells were "perfused" by means of a peristaltic pump which pulls receiver solution through them. Effluents from the cells were collected with a fraction collector. Flow rates were typically 0.25 mL/min. The receiver solution was an isotonic pH 7.4 buffered saline solution containing 10 mM HEPES, 100 mM NaCl, PEG 400, and a surfactant, Pluronic P-103. lontophoresis current (50 μA) was provided by WPI power cells, and the applied currents and cell voltages were recorded with a Fluke databucket.
Results: The effluent receiver solution was measured in a series of six runs, to determine whether the ester was hydrolyzed during the period of the iontophoresis. Results were obtained by means of liquid scintillation counting (radioactivity), and HPLC-UV. The HPLC results are estimates based on calibration for the ester form only.
Patches: A dual compartment 2 cm^2 patch design, loaded with 100 mg/mL of the GPIIb/IIIa antagonist of Example 1, with a size exclusion or anion exchange membrane separator.
Experimental Protocol: See Example 1, with current applied at 400 μA.
Patches: A dual compartment 2 cm^2 patch design, loaded with 50 mg/mL chloride salt of the IIb/IIIa antagonist.
Experimental Protocol: See Example 1, current applied at 100 μA and 200 μA.
Patches: A dual compartment 2 cm^2 patch design, loaded with either: (1) a 1 mM NaCl, 150 mg/mL formulation of the IIb/IIIa antagonist of Example 1, or (2) a 75 mM NaCl, 100 mg/mL formulation of the drug.
Experimental Protocol: See Example 1, current applied at 100 μA for the 1 mM NaCl sample, and at 400 μA for the 75 mM NaCl sample.

CCCCOC(=O)N[C@@H](CNC(=O)C[C@H]1CC(c2ccc(C(=N)N)cc2)=NO1)C(=O)OC [GPIIb/IIIa antagonist, methyl-N^3-[2-{3-(4-formamidinophenyl)-isoxazolin-5(R)-yl}-acetyl]-N^2-(n-butyloxycarbonyl)-2,3-(S)-diaminopropanoate]
acid hydrolysis product in extracts of the patch [1]: no detectable acid hydrolysis product
solubility [2]: 80 mg/mL (≈ 179 mM)
variability in plasma levels with iontophoresis ([3]; 20 mg/mL in 154 mM saline patch): extremely low
blood levels, iontophoresis compared with constant IV infusion (FIGS. 4 and 5) ([3]; 20 mg/mL in 154 mM saline patch vs acid form IV at 10 μg/h, plasma acid drug form): similar
constancy of flux (FIG. 3) [4]: very constant over the 24 hour period
delivery rate profile (FIG. 8) ([4]; 1 mM NaCl, 150 mg/mL at 100 μA and 75 mM NaCl, 100 mg/mL at 400 μA, 24 hour iontophoresis): much more uniform delivery rates
dependence of in vitro delivery on current (FIG. 3) ([4]; 10 mg/mL drug, 9 mg/mL NaCl): proportional to increase in current
variability in delivery from skin to skin (FIG. 2) ([4]; 10 mg/mL, 154 mM NaCl, 50 μA): unexpectedly low
delivery, anion exchange compared with size exclusion membrane patch (FIG. 6) ([4]; dual compartment 2 cm^2 patch, 100 mg/mL, 400 μA): somewhat greater delivery
delivery rate profile (FIG. 6) ([4]; dual compartment patches, 100 mg/mL, 400 μA): the flux starts high, and falls as electrolyte cations accumulate with time
Total (Liquid Scintillation Assay) ([4]; effluent receiver solution, 10 mg/mL in 154 mM saline, 50 μA, six runs (sample 1-6)): 4.76 µg/mL and 4.15 µg/mL and 4.05 µg/mL and 4.87 µg/mL and 5.56 µg/mL and 5.19 µg/mL
metabolism of the positively charged ester to the uncharged zwitterion ([4]; in the skin or receptor fluid): metabolized, to some extent

CCCCOC(=O)N[C@@H](CNC(=O)C[C@H]1CC(c2ccc(C(=N)N)cc2)=NO1)C(=O)OC [chloride salt of the IIb/IIIa antagonist]
delivery rate (FIG. 7) ([4]; 100 μA, nearly flat delivery): 10 to 20 µg/h
delivery rate (FIG. 7) ([4]; 200 μA, nearly constant delivery): 20 to 35 µg/h
